Measured values as given in patent US6335466B1, “Fluorinated amino polyhedral borate compounds” (Colorado State University Research Foundation, priority 2000, dated 2002).
“And” between values parts separate entries of the source, which are not always exact repeats. Identical values can stand only once.

Assays:
[1] = Solubility in organic solvents and water; type: physicochemical
[2] = Conductivity of glyme (DME) solutions; type: physicochemical
Text: A calibrated Yellow Springs model 3403 conductivity cell (cell constant k=1.113) and a model 31 conductivity bridge were employed. The measurements were made in a nitrogen-filled glove box. […] The concentration dependence of the conductivity of a lithium salt in a dilute solution is expected to be linear. The conductivity of a 0.01 M glyme solution of LiB12F11NMe3 is therefore expected to be about 78 μS cm^−1. The conductivity of a 0.0050 M glyme solution LiB12F11NMe3 is approximately ten times higher than the conductivity of a 0.010 M glyme solution of lithium triflate (4 μS cm−1).
The conductivities of solutions of Li(Dd3NB12F11) and Li(Bn2HNB12F11) (the latter sample was contaminated with about 15% Li(BnH2NB12F11)) were measured using a similar procedure as that of Example 25. A calibrated Yellow Springs model 3403 conductivity cell (cell constant k=0.98 cm−1) and a Yellow Springs model 31 conductivity bridge was employed. The measurements were made in a nitrogen-filled glove box. The conductivities of glyme solutions of Li(Dd3NB12F11), Li(Bn2HNB12F11), and lithium salts of related anions are listed in Table 2.

[3] = Olefin polymerization catalyst activator test; conditions: 20 μmole Zr, Zr/A/Al 1/4/250, MAO; listed as C
Text: All solvents used in synthesis and polymerization experiments were obtained when possible as anhydrous grade and further purified as described below. Diethyl ether, hexanes and toluene were obtained from Aldrich Chemical Company (Milwaukee, Wis.) in Sure Seal® bottles as anhydrous grade. Solvents were further purified by passing through columns packed with activated A2 alumina and Q-5 catalyst which had been reduced tbennally under hydrogen. Methylliium in aiethyl ether, zirconecene dichloride, pentamethylcyclopentadienyl zirconium dichloride and methylaluminoxane (10 wt. % in toluene) were obtained from Aldrich Chemical Company and used without further purification. Methyllithium was titrated with an aqueous HCl standard (Aldrich Chemical Company) against a phenolphthalein indicator in order to determine the concentration prior to use. Tris(perfluorophenyl)borate (i.e., B2 borate) was obtained as a research sample from Albermarle (Baton Rouge, La.) (Lot # 29779501-10) and used without further purification.
The solvent for polymerization experiments was 2,2,4-trimethylpentane (i.e., iso-octane) which was obtained from Aldrich Chemical Company in 18 L Stainless Steel Kilo Lab® Cylinders as anhydrous grade. The polymerization solvent was further purified by passing through columns packed with activated 13× molecular sieves and Q-5 catalyst. Periodic checks were performed on the water content of the solvent by Karl Fischer Columbmetric Titration and determined to contain 3 ppm or less water after purification. Solids were stored, weighed and transferred in glove box equipped with a catalyst train under dry nitrogen. Polymerization stock solutions and compositions were prepared in septum fitted bottles in a glove box. All solutions were freshly prepared for each set of evaluations.
All solutions were prepared in a glove box under dry nitrogen in a glass narrow mouth bottle fitted with a septum. This solution was prepared by the dissolution of 63 mg of Cp2ZrMe2 in 50 mL of dry, nitrogen degassed toluene. The complex was completely miscible in the solvent. […]

[4] = comparison species; cited from earlier work
[5] = lithium salts, 0.0100 M DME solutions, 25° C., nitrogen atm.

With `CCCC[N+](CCCC)(CCCC)CCCC.F[B-](F)(F)F` [[NBu4][BF4]] the “solubility in water relative to [NBu4][H3NB12F11]” value [1] was “higher solubility”.

With `F[P-](F)(F)(F)(F)F.[Li+]` [LiPF6] the conductivity [2, 5] was 73 μS cm−1.

With `Fc1c(F)c(F)c(OB(Oc2c(F)c(F)c(F)c(F)c2F)Oc2c(F)c(F)c(F)c(F)c2F)c(F)c1F` [B2 borate, Tris(perfluorophenyl)borate] the “Final Rate C2H4 uptake” value [3] was 0.7 g/m and 0.9 g/m and 1.3 g/m and 0.8 g/m, the “Max Exotherm” value [3] was 1 °C and 2 °C and the “Max Rate C2H4 uptake” value [3] was 26.3 g/m and 21.7 g/m and 16.3 g/m and 24.9 g/m and 31.3 g/m.

`O=S(=O)([O-])C(F)(F)F.[Li+]` [lithium triflate] gave a conductivity ([2]; 0.010 M glyme solution) of 4 μS cm^−1 and a conductivity [2, 5] of 4 μS cm−1.

For `CN` [NH3Me^+1], the “pKa value of selected acids” value [4] is listed as 10.7.

In the case of `CCCCN` [NH3Bu^+1], the “pKa value of selected acids” value [4] is given as 10.8.

For `S` [HS^−1], the “pKa value of selected acids” value [4] is listed as 19.0.
